Data set [1] can be described thus: abundance of the metabolite relative to the parent compound in humans. It counts as in vivo, human. Particulars: relative to compound I. From the text:
(§1) Though the potency of this metabolite is lower than the parent molecule, the overall exposure and peak plasma concentration in humans is higher than seen in all tested animal species. As a consequence, dedicated pharmacology and toxicology studies have been performed with compound II. […] The compound according to formula II is described in WO2013/189771.

The next data set addresses JAK1 (Homo sapiens, UniProt P23458). The data set can be described thus: inhibition of JAK1 signaling by the metabolite relative to the parent. The note with it: relative to compound I.
From the text: as §1

For data set [2], the system named is active psoriatic arthritis. Particulars: cited from earlier work.

Read-outs that look alike come from different tables or passages of the source.

Chain of JAK1 (P23458 whole entry, species assumed): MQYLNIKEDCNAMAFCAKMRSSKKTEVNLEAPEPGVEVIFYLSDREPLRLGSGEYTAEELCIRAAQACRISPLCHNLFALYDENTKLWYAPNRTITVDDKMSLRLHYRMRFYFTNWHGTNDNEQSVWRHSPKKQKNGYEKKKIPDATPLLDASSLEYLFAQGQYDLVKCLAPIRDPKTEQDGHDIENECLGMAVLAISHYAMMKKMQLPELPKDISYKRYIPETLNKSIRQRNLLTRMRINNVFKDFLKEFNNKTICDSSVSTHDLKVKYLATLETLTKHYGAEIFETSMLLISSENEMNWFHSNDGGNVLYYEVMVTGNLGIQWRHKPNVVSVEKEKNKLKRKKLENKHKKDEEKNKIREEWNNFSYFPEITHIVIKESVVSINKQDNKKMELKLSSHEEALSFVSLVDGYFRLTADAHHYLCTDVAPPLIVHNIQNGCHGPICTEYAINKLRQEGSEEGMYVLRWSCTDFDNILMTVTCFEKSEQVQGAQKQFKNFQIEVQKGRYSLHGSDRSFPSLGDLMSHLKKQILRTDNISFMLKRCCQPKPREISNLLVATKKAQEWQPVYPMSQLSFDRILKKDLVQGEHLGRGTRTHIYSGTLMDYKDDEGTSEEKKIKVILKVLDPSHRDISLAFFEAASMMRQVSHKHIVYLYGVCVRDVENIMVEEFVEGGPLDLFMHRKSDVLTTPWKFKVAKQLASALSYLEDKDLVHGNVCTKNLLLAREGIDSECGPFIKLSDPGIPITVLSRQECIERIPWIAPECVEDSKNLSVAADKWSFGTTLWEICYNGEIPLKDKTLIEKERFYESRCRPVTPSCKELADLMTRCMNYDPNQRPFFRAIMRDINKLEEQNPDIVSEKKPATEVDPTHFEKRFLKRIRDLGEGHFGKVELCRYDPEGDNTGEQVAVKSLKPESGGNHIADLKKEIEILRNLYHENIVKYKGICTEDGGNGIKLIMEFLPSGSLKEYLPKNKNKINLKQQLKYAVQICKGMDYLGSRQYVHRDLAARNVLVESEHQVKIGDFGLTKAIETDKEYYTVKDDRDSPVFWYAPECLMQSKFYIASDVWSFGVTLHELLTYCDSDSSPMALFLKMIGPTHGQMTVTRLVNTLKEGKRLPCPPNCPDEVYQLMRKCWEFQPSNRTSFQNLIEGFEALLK

Regarding `Nc1nc2cccc(-c3ccc(CN4CCS(=O)(=O)CC4)cc3)n2n1` [compound II], in data set [1], the “abundance, fold more abundant than the parent compound” value is recorded as “about 10 fold”. In addition, the “potency on JAK1 signaling, fold less potent than parent compound” value on JAK1 is “approximately 20 fold”.
For `C[C@@H]1CCN(C(=O)CC#N)C[C@@H]1N(C)c1ncnc2[nH]ccc12` [tofacitinib], the ACR20 response rate in data set [2] (month 3, dosed at 5 mg) was 50%; in data set [2] (month 3, dosed at 10 mg) it was 61%.

These data come from patent US12329758B2, “Methods for the treatment of psoriatic arthritis” (Alfasigma S.p.A., priority 2018, dated 2025).
